Experimental data as given in paper PMC12257510, “Structure-Guided Design of a KMT9 Inhibitor Prodrug with Cellular Activity” (Journal of Medicinal Chemistry, 2025).
Where two headings read alike, the source gives them in different places.

Key:
[1] = molecular target: T1, KMT9 (Homo sapiens, UniProt Q9Y5N5); set-up: method as in previous study; settings: compound 2d taken as a reference from the previous study; ref previous study; cited from earlier work
T1 sequence (Q9Y5N5 1-214): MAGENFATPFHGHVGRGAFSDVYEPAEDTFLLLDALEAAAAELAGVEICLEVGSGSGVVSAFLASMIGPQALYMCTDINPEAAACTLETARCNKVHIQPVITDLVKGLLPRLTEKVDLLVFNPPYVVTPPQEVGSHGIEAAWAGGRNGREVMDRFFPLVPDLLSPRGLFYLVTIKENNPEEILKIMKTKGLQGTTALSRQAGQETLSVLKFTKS
T1 sequence (Q9UI30 1-125 partner): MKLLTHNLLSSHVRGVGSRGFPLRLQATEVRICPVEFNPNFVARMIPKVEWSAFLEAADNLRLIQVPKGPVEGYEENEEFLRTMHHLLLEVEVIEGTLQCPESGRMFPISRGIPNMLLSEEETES

[2] = molecular target: T1, KMT9; set-up: method as in previous study; settings: compound 2d taken as a reference from the previous study; ref previous study; cited from earlier work; remark: listed apart in the source
[3] = molecular target: T1, KMT9; assay: Microscale thermophoresis (MST) binding assay; settings: for Kd: MST, binding to KMT9, read-out: Kd
Protocol: To determine the binding affinity of the compound and KMT9, microscale thermophoresis (MST) analysis was performed with a NanoTemper Monolith NT.115 instrument (NanoTemper Technologies GmbH). KMT9 was labeled with a RED-Tris-NTA labeling kit (NanoTemper Technologies GmbH) based on the manufacturer’s instructions. Buffer including 25 mM HEPES (pH 7.5), 100 mM NaCl, 1 mM DTT and 0.05% Tween was used for the reaction buffer. Varying concentrations of compounds were titrated against His-tag labeled KMT9 proteins (20 nM). Samples were loaded into standard Capillaries (NanoTemper Technologies GmbH) and MST measurements were performed using 40% MST power and 100% LED power. For each set of binding experiments, MST measurement was carried out with Binding Affinity module in MO. Control program under Nano-RED excitation. Data sets were processed with the MO.Affinity Analysis software (NanoTemper Technologies GmbH).

[4] = molecular target: T1, KMT9; set-up: method as in previous study; settings: compound 2d taken as a reference from the previous study; ref previous study; cited from earlier work; remark: listed apart in the source
[5] = system: panel of 27 SET domain-containing and 14 Rossmann-fold methyltransferases; assay: Selectivity assay, radiometric methyltransferase panel; assay type: biochemical; settings: IC50 panel, 3H-labeled SAM
Protocol: Selectivity profile of compound 6 was evaluated by testing the IC50 in a panel of methyltransferases. The IC50 of a panel of SET-domain containing and Rossmann-fold methyltransferases was assessed in a radiometric assay measuring substrate methylation using ^3H-labeled SAM by RBC Corp by compound 6. Data was process and plotted using KNIME Analytic Platform from KNIME AG.

[6] = molecular target: T1, KMT9; assay: Thermal shift assay (SyproOrange); assay type: binding; settings: thermal shift, 2 μM KMT9, 500 μM compound; read-out: ΔTm
Protocol: The assay was carried out in 96-well Hard-Shell PCR plates (Bio-Rad Laboratories Inc.). […] Final assay concentrations were set to 500 μM of compound 8, 2 μM KMT9 and 5× SO. One μL of 20× compound, 4 μL of assay buffer, 10 μL of 2× KMT9 and 5 μL of 4× SO were pipetted. For the no-compound control, 20× inhibitor stock was replaced by DMSO. The final volume was 20 μL. The plate was spun down at 700 rpm for 1 min using a Hettich UNIVERSAL 320 centrifuge and incubated at 25 °C, shaking at 600 rpm. After incubation, the plate was spun down for 1 min at 700 rpm and measurement was conducted using a CFX96 Touch Real-Time PCR Detection System (Bio-Rad Laboratories Inc.). The plate was equilibrated at 20 °C for 4 min and then heated stepwise at a rate of 1 °C per 15 s until 95 °C. After every step, fluorescence was measured in FRET mode. Calculation of melting points was conducted by a Boltzman sigmoidal model using GraphPad Prism 7.0.

[7] = molecular target: T2, KMT5A (Homo sapiens, UniProt Q9NQR1); assay: CETSA in SW480 cell lysate, KMT5A (negative control); assay type: binding; set-up: endogenous in cells; host or cells: SW480; settings: negative control protein
T2 sequence (Q9NQR1 1-393): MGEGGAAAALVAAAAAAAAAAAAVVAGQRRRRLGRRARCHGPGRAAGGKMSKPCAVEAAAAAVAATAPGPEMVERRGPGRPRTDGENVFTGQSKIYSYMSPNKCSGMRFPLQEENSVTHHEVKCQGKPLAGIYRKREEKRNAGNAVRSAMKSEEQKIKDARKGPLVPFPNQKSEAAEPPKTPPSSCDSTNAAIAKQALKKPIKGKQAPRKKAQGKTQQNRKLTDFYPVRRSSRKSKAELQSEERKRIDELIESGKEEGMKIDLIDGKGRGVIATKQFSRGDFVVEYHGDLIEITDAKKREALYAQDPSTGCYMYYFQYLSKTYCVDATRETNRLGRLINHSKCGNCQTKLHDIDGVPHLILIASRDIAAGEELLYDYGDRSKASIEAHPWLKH
Protocol: (§1) For whole cell CETSA, the cells were incubated with 10/15 μM of compound 7b/8/8-N for 18 h. Then, cells were washed with cell culture medium, detached from the surface using trypsin, washed with PBS and the number of cells was determined. Cell concentration was adjusted to 3.6 × 10^7 cells/mL using in PBS with Complete (w/o EDTA, Roche) protease inhibitor. Then, cells were frozen in liquid nitrogen and thawed at 25 °C three times, before being divided in 16 aliquots. Each aliquot was heated to a defined temperature between 40 and 70 °C in a PCR cycler (16 well gradient, 55 °C ± 15). After 3 min incubation, aliquots were snap frozen in liquid nitrogen and thawed at 25 °C. Cell lysates were then centrifuged at 20,000 × g , 4 °C for 20 min. Supernatant were mixed with 5× loading buffer, heated to 70 °C for 5 min and analyzed by Western blotting essentially as previously described. For the CETSA performed with cell lysates, cells were directly harvested and lysed as described above. […]
(§2) Figure S4. […] Representative Western blots (A) and quantification (B) showing no obvious shifting melting temperatures (ΔT m) of endogenous KMT5A upon treatment with compound 7b compared to DMSO. […]
(§3) Representative Western blots (C) and quantification (D) showing no shifting melting temperatures (ΔT m) of endogenous KMT5A upon treatment with compound 8 compared to DMSO. […]

[8] = molecular target: T3, endogenous KMT9a (Homo sapiens, UniProt Q9Y5N5); assay: CETSA in intact SW480 cells, KMT9; assay type: cell-based; settings: 18 h, vs DMSO
T3 construct: increased thermal stability of endogenous KMT9 in SW480 cell lysates; endogenous in cells; host or cells: SW480
T3 sequence (Q9Y5N5 1-214): T1 sequence (Q9Y5N5 1-214)
T3 sequence (Q9UI30 1-125 partner): T1 sequence (Q9UI30 1-125 partner)
Protocol: (§4) For whole cell CETSA, the cells were incubated with 10/15 μM of compound 7b/8/8-N for 18 h. Then, cells were washed with cell culture medium, detached from the surface using trypsin, washed with PBS and the number of cells was determined. Cell concentration was adjusted to 3.6 × 10^7 cells/mL using in PBS with Complete (w/o EDTA, Roche) protease inhibitor. Then, cells were frozen in liquid nitrogen and thawed at 25 °C three times, before being divided in 16 aliquots. Each aliquot was heated to a defined temperature between 40 and 70 °C in a PCR cycler (16 well gradient, 55 °C ± 15). After 3 min incubation, aliquots were snap frozen in liquid nitrogen and thawed at 25 °C. Cell lysates were then centrifuged at 20,000 × g , 4 °C for 20 min. Supernatant were mixed with 5× loading buffer, heated to 70 °C for 5 min and analyzed by Western blotting essentially as previously described. For the CETSA performed with cell lysates, cells were directly harvested and lysed as described above. The lysates were then split and incubated either with DMSO or 10 μM compound 7b for 2 h. Then, lysates were aliquoted again into 16 samples each and treated as described for the whole cell CETSA.

[9] = molecular target: T1, KMT9; assay: KMT9 methyltransferase inhibition assay (3H-SAM, ETF1 substrate)
Protocol: The assay was carried out in 0.5 mL Eppendorf tubes in duplicates. Assay buffer consisted of 50 mM BTP, 1 mM MgCl2, 1 mM DTT and 0,01% Triton-X100 at a pH of 8.5 (adjusted using 1 M HCl and 1 M NaOH). 20X inhibitor stock (in DMSO), 2× enzyme stock and 4× substrate mix (both in assay buffer) were prepared. The substrate mix consisted of Tritium-labeled S-adenosylmethionine (3H-SAM), S-adenosylmethionine (SAM) and eukaryotic peptide chain release factor subunit1 (, residues 140–275) (ETF1). Final assay concentrations were set to 25 nM KMT9, 0.3 μM 3H-SAM, 0.7 μM SAM and 5 μM ETF1. […] Five μL of 4× substrate mix was added to initiate the reaction. The final reaction volume was 20 μL. For the positive control, the compound was replaced by DMSO; for the negative control, the compound was replaced by DMSO and KMT9 was replaced by assay buffer. The reaction mix was incubated in an Eppendorf thermomixer comfort at 30 °C for 2 h, shaking at 300 rpm. The reaction was quenched using 5 μL 50% trichloroacetic acid (TCA) and incubated at 25 °C for 5 min. Twenty-two μL of the mixture was transferred into 96-well MultiScreenHTS FB filter plates (Merck KGaA, Darmstadt, Germany) and washed four times with 10% TCA and two times with 100% ethanol. The plate was dried overnight, the filters were transferred into individual 6 mL Pony Vials (PerkinElmer Inc., Waltham, MA, USA) and incubated in 3 mL of Ultima Gold scintillation cocktail (PerkinElmer Inc., Waltham, MA, USA) for 30 min. The scintillation signal was measured for 3× 1 min using TriCarb 2910 TR (PerkinElmer) scintillation counter in 3H CPM mode (LL: 0, UL: 18.6).
Inhibition was calculated using the following formula: Inhibition[%]=(1−xc−xpos/xpos−xneg)×100
With xc: signal of compound, xpos: mean signal of positive control, xneg: mean signal of negative control. Data fitting was carried out by GraphPad 7.0 using nonlinear fit ([Inhibitor] vs response – variable slope (four parameters)).

[10] = molecular target: T3, endogenous KMT9a; assay: CETSA in SW480 cell lysate, KMT9; assay type: binding; settings: 2 h, vs DMSO
Protocol: as §4

[11] = molecular target: T4, KMT9a (Homo sapiens, UniProt Q9Y5N5); assay: CETSA in Caco-2 cells, KMT9; assay type: cell-based; set-up: of endogenous KMT9 upon treatment with; endogenous in cells; host or cells: Caco-2; settings: 15 μM
T4 sequence (Q9Y5N5 1-214): T1 sequence (Q9Y5N5 1-214)
T4 sequence (Q9UI30 1-125 partner): T1 sequence (Q9UI30 1-125 partner)
Protocol: as §1, §2, §3

[12] = system: H4K12me1 levels in PC-3 M prostate tumor cells; assay: Western blot of cellular H4K12me1 levels; assay type: cell-based; settings: PC-3 M cells, 10 μM, 3 days
Protocol: 7 Cellular activity of prodrug compound 8. (A) Levels of H4K12me1 in PC-3 M prostate tumor cells cultured in the presence of DMSO (−), 10 μM compound 8 or compound 8-N for 3 days were analyzed by Western blot using the indicated antibodies. Histone H4 was used as control. (B, C) Proliferation of Caco-2 cells treated with DMSO (Ctrl), compound 8, or compound 8-N were measured by Xcelligence. Data represent means ± s.d (n = 3). (D) Proliferation of HepG2 cells upon treatment of DMSO (Ctrl) and compound 8.
Experiments were performed as previously described. Histones used for Western blot analysis were extracted from cells as following: Cells were harvested, washed with PBS, resuspended in Triton Extraction Buffer (TEB; PBS, Triton ×100, 2 mM PMSF, 0.02% NaN3), stored 10 min on ice, centrifuged, and supernatant was discarded. After washing cells, a second time with TEB, pellets were resuspended in 0.2 N HCl and histones were acid-extracted overnight at 4 °C. Upon centrifugation for 10 min at 2000 rpm, supernatant was collected and protein concentration was determined. Three days before harvesting, cells were transfected with siRNA as indicated. The following antibodies were used: anti-KMT9α (#27630, lot 20062017, Schüle Lab), antihistone H4 (#ab10158, lot GR322677–1, Abcam), anti-H4K12me1 (#27429, lot 27062017, Schüle Lab).

[13] = system: Caco-2 cells; assay: Cell proliferation assay (X-Celligence), Caco-2; assay type: cell-based; settings: Xcelligence, vs DMSO
Protocol: Cell proliferation was determined using the X-Celligence RTCA system (Roche). For real-time recording of SW480, Caco-2 cell proliferation, 5000 cells/well were seeded in 16 well E-plates (Roche). […] Cell indices were automatically recorded every 15 min. Relative velocities represent the change of the cell index over time. The sequences of the siRNAs (Stealth RNAi siRNAs; Life Technologies) used in the experiments have been previously described.

For `NCCCN(CC[C@H](N)C(=O)O)C[C@H]1O[C@@H](n2cnc3c(N)ncnc32)[C@H](O)[C@@H]1O` [compound 2d, (S)-2-Amino-4-((((2R,3S,4R,5R)-5-(6-amino-9H-purin-9-yl)-3,4-dihydroxytetrahydrofuran-2-yl)methyl)(3-aminopropyl)amino)butanoic acid], the Kd [1] is listed as 10 nM, the ΔTm [2] is listed as “ΔTm= 18.12 K” and the “Increase of binding compared to compound 1” value ([3]; Kd ratio vs compound 1) is listed as “about 1000 fold”. For the same compound, the IC50 [4] was 29 nM.

In the case of `CNc1ncnc2c1ccn2[C@@H]1C[C@H](CN(CCCNCCc2ccccc2)CC[C@H](N)C(=O)O)[C@@H](O)[C@H]1O` [compound 6, (S)-2-Amino-4-((((1R,2R,3S,4R)-2,3-dihydroxy-4-(4-(methylamino)-7H-pyrrolo[2,3-d]pyrimidin-7-yl)cyclopentyl)methyl)(3-(phenethylamino)propyl)amino)butanoic acid], the Kd ([3]; given in nM) is reported as 30 nM and the “Selectivity against SET-domain containing and Rossmann-fold MTs” value [5] is reported as “selective for KMT9 against other MTs”.

`CNc1ncnc2c1ccn2[C@@H]1C[C@H](CN(CCCNCCc2ccc(Oc3ccc(Cl)cc3)c(F)c2)CC[C@H](N)C(=O)O)[C@@H](O)[C@H]1O` [compound 7b, (s)-2-Amino-4-((3-((4-(4-chlorophenoxy)-3-fluorophenethyl)amino)propyl) (((1R,2R,3S,4R)-2,3-dihydroxy-4-(4-(methylamino)-7H-pyrrolo[2,3-d]pyrimidin-7-yl)cyclopentyl)methyl)amino)butanoic Acid] showed a ΔTm at 500 µM [6] of 19.7 °C, a Kd ([3]; given in nM) of 12 nM and a Kd [3] of 10 nM. The ΔTm at 10 µM [7] was 1.1 °C, the ΔTm at 10 µM [8] was 1.8 °C and the IC50 [9] was 160 nM. The ΔTm at 10 µM [10] was 10.9 °C.

In the case of “Ethyl (S)-2-amino-4-((3-(4-(4-chlorophenoxy)-3-fluorophenethoxy)propyl) (((1R,2R,3S,4R)-2,3-dihydroxy-4-(4-(methylamino)-7H-pyrrolo[2,3-d]pyrimidin-7-yl)cyclopentyl)methyl)amino)butanoate [compound 8-N]”, the “ΔTm of KMT9 (CETSA)” value [11] is reported as 0.1 K, the “ΔTm of endogenous KMT9 (CETSA)” value ([8]; 10 μM) is reported as −0.6 K and the “Levels of H4K12me1” value [12] is reported as “no effect was observed”. The “Proliferation of Caco-2 cells” value [13] was “fails to do so”.
